Experimental data: US10670605B2, “Cysteine reactive probes and uses thereof” (The Scripps Research Institute, priority 2015, dated 2020)

How the values were obtained:
Assay in all cases: Competitive isoTOP-ABPP in situ (fragment-treated cells)
Type in all cases: cell-based
[1] = target: T1, cysteines in MDA-MB-231 and Ramos cells (Homo sapiens, UniProt Q99497)
T1 sequence (Q99497 1-189): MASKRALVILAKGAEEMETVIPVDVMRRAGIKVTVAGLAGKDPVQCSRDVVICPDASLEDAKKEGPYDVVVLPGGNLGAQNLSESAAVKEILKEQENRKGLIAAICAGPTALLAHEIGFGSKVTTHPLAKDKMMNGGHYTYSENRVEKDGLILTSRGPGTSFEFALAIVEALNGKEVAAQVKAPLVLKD

[2] = target: T2, cysteines in MDA-MB-231 and Ramos cells (Homo sapiens, UniProt Q13428)
T2 sequence (Q13428 1-1488): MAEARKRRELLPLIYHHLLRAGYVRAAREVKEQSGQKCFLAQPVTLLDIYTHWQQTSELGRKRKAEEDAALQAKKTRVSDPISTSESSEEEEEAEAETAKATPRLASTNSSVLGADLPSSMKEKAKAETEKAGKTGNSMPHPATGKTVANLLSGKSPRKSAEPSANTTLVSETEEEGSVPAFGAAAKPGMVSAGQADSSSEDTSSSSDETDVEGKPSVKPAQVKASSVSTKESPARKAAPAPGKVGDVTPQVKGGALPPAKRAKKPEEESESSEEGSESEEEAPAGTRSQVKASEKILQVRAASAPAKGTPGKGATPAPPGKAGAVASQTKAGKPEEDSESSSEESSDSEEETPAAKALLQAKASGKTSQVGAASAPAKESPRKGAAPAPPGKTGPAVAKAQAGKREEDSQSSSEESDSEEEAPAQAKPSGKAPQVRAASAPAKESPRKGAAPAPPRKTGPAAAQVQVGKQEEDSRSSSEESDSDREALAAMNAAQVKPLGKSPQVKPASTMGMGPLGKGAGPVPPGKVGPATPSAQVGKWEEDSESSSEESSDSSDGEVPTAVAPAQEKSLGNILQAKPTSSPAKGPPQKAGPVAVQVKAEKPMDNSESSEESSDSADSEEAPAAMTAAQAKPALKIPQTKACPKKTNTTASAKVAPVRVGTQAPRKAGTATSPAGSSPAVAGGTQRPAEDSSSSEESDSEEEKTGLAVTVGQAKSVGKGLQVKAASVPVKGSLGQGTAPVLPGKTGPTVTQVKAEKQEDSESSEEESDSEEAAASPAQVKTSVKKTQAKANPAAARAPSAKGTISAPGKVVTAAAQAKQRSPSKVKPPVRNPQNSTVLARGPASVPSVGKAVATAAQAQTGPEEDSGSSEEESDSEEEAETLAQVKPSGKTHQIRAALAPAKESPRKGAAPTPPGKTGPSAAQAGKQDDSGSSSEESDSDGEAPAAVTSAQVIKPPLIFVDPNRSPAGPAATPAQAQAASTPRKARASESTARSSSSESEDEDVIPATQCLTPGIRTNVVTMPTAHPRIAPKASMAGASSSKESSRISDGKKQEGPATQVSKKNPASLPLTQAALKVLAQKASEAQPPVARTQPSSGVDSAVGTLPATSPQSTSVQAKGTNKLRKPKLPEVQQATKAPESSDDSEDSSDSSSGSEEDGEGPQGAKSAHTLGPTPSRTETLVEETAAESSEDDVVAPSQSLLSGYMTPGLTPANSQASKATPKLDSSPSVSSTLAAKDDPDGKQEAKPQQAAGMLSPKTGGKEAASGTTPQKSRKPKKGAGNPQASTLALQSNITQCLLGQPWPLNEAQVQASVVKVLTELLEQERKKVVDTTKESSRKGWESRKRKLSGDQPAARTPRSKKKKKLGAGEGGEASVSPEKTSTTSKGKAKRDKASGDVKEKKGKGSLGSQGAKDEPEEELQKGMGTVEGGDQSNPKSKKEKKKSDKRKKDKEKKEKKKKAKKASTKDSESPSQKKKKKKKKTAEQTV

[3] = target: T3, cysteines in MDA-MB-231 and Ramos cells (Homo sapiens, UniProt Q86SX6)
T3 sequence (Q86SX6 32-157): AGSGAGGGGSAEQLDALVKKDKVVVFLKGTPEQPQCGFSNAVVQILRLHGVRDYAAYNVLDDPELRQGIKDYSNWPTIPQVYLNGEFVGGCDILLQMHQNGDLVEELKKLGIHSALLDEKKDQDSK

[4] = target: T4, cysteines in MDA-MB-231 and Ramos cells (Homo sapiens, UniProt Q9UMS0); details: 200 μM, insitu
T4 sequence (Q9UMS0 10-254): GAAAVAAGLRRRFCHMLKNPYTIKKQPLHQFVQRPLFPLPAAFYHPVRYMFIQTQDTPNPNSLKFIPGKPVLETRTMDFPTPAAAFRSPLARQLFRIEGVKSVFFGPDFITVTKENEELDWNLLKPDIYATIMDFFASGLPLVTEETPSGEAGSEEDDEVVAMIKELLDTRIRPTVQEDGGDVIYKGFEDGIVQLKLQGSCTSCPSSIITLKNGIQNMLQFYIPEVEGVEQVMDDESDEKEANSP

[5] = target: T5, cysteines in MDA-MB-231 and Ramos cells (Homo sapiens, UniProt P78417); details: 200 μM, insitu
T5 sequence (P78417 1-241): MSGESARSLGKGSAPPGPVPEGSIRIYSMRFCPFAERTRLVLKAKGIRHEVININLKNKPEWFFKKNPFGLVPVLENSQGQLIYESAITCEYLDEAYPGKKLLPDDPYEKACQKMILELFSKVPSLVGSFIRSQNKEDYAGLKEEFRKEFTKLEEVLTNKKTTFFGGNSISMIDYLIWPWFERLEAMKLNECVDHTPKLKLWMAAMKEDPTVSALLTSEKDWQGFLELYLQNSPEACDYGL

| SMILES | isoTOP-ABPP ratio Q99497_C106 ([1]; 200 μM, insitu, 231) | isoTOP-ABPP ratio Q13428_C38 ([2]; 200 μM, insitu, 231) | isoTOP-ABPP ratio Q13428_C1298 ([2]; 200 μM, insitu, 231) | isoTOP-ABPP ratio Q86SX6_C67 ([3]; 200 μM, insitu, 231) | isoTOP-ABPP ratio Q9UMS0_C213 [4]; 231 | isoTOP-ABPP ratio P78417_C32 [5]; 231 | isoTOP-ABPP ratio Q86SX6_C67 ([3]; 200 μM, insitu, ramos) | isoTOP-ABPP ratio P78417_C32 ([5]; ramos) | further results |
| --- | --- | --- | --- | --- | --- | --- | --- | --- | --- |
| Cn1cc(S(=O)(=O)N2CCOCC2)cc1C(=O)NC(=O)CCl [compound 11] | – | – | – | – | – | – | – | – | isoTOP-ABPP ratio Q99497_C106 ([1]; 100 μM in situ 231): 1.3; isoTOP-ABPP ratio Q13428_C38 ([2]; 100 μM in situ 231): 1.1; isoTOP-ABPP ratio Q13428_C1298 ([2]; 100 μM in situ 231): 0.8; isoTOP-ABPP ratio Q86SX6_C67 ([3]; 100 μM in situ 231): 1.4 |
| C=CC(=O)Nc1cc(F)c(N2CCN(C(=O)OC(C)(C)C)CC2)c(F)c1 [compound 38] | 1.1 | 1.1 | 2.0 | 1.0 | 3.5 | 1.0 | – | – | – |
| CC1CCc2ccccc2N1C(=O)CCl (stereo not shown) [compound 45] | 20.0 | 2.8 | 4.7 | 9.1 | 7.1 | 1.9 | – | – | – |
| COc1ccc2c(c1)CCCN2C(=O)CCl [compound 2] | – | – | – | – | – | – | – | – | isoTOP-ABPP reactivity Q13428_C38 TCOF1 ([2]; 200 μM, insitu, 231): 3.3; isoTOP-ABPP reactivity Q13428_C1298 TCOF1 ([2]; 200 μM, insitu, 231): 4.7; isoTOP-ABPP reactivity Q865X6_C67 GLRX5 ([3]; 200 μM, insitu, 231): 1.1; isoTOP-ABPP reactivity Q9UMS0_C213 NFU1 [4]; 231: 7.4 |
| COc1cc2c(cc1OC)CN(C(=O)CCl)CC2 [compound 8] | – | – | – | – | – | – | – | – | isoTOP-ABPP reactivity Q13428_C38 TCOF1 ([2]; 200 μM, insitu, 231): 2.0; isoTOP-ABPP reactivity Q13428_C1298 TCOF1 ([2]; 200 μM, insitu, 231): 20.0; isoTOP-ABPP reactivity Q865X6_C67 GLRX5 ([3]; 200 μM, insitu, 231): 1.0; isoTOP-ABPP reactivity P78417_C32 GSTO1 [5]; 231: 20.0 |
| CC(C)CCOCCNC(=O)CCl [compound 27] | 0.9 | 1.3 | 1.0 | 1.5 | 1.3 | 20.0 | – | – | – |
| O=C(CCl)N1CCN(S(=O)(=O)c2ccccc2F)CC1 [compound 10] | 1.7 | 4.2 | 5.9 | 1.3 | 20.0 | 20.0 | 1.1 | 20.0 | – |
| O=C(CCl)N1CCN(CC(=O)N2CCOCC2)CC1 [compound 29] | – | – | – | – | – | – | 1.2 | 20.0 | isoTOP-ABPP ratio Q13428_C38 ([2]; 200 μM, insitu, ramos): 1.5; isoTOP-ABPP ratio Q9UMS0_C213 ([4]; ramos): 2.0 |
| C=CC(=O)N(Cc1cccnc1)c1cc(C(F)(F)F)cc(C(F)(F)F)c1 [compound 31] | 0.8 | – | – | – | 1.5 | 0.8 | 0.7 | 2.6 | isoTOP-ABPP ratio Q99497_C106 ([1]; 200 μM, insitu, ramos): 1.0; isoTOP-ABPP ratio Q13428_C1298 ([2]; 200 μM, insitu, ramos): 2.2 |
